Reference: ChEMBL document CHEMBL5120875, “Discovery of diarylheptanoids that activate α7 nAchR-JAK2-STAT3 signaling in macrophages with anti-inflammatory activity in vitro and in vivo” (Bioorg Med Chem, 2022)
Activity calls are given as the source filed them. The rule behind the calls is not given here.

Legend:
RAW264.7 [1] = assay: Inhibition of LPS-induced NO production in mouse RAW264.7 cells at 5 uM preincubated with compound for 2 hrs followed by LPS stimulation for 24 hrs by Griess reagent based assay relative to control; type: functional; settings: time 26 hrs
RAW264.7 [2] = assay: Cytotoxicity against mouse RAW264.7 cells assessed as effect on cell viability at 5 uM incubated for 24 hrs by alamar blue reagent based fluorescence assay; type: toxicity; settings: raw264.7, 24 h
RAW264.7 [3] = assay: Antiinflammatory activity in LPS-induced mouse RAW264.7 cells assessed as enhancement of JAK2 phosphorylation at 20 uM pretreated with compound for 2 hrs followed by LPS-stimulation and measured after 30 mins by Western blot analysis; type: functional, cell-based; settings: time 2.5 hrs
RAW264.7 [4] = assay: Antiinflammatory activity in LPS-induced mouse RAW264.7 cells assessed as enhancement of STAT3 phosphorylation at […] pretreated with compound for 2 hrs followed by LPS-stimulation and measured after 30 mins by Western blot analysis; type: functional, cell-based; settings: time 2.5 hrs
RAW264.7 [5] = assay: Antiinflammatory activity in LPS-induced mouse RAW264.7 cells assessed as enhancement of STAT3 phosphorylation at 20 uM pretreated with compound for 2 hrs followed by LPS-stimulation and measured after 30 mins by Western blot analysis; type: functional, cell-based; settings: time 2.5 hrs
RAW264.7 [6] = assay: Antiinflammatory activity in LPS-induced mouse RAW264.7 cells assessed as enhancement of JAK2 phosphorylation at […] pretreated with compound for 2 hrs followed by LPS-stimulation and measured after 30 mins by Western blot analysis; type: functional, cell-based; settings: time 2.5 hrs
RAW264.7 [7] = assay: Inhibition of LPS-induced NO production in mouse RAW264.7 cells preincubated with compound for 2 hrs followed by LPS stimulation for 24 hrs by Griess reagent based assay; type: functional, cell-based

Row | SMILES | inhibition at 5 µM (RAW264.7 [1]) [%] | Activity (RAW264.7 [2]) | further results
1 | O[C@@H](CC/C=C/c1ccccc1)CCc1ccccc1 | -18.3 | Non-Toxic | –
2 | Oc1ccc(CCC(O)CC(O)CCc2ccccc2)cc1 (stereo not drawn) | 20.5 | Non-Toxic | –
3 | COc1cc(CCC(=O)CC/C=C/c2ccccc2)ccc1O | 52.2 | Non-Toxic | –
4 | O[C@@H](CCCCc1ccccc1)CCc1ccccc1 | 40.1 | Non-Toxic | –
5 | COc1ccc(/C=C2\CCCN=C2c2cccnc2)c(OC)c1 | – | – | Activity (RAW264.7 [3]): Active; Activity (RAW264.7 [4]): Active; Activity (RAW264.7 [5]): Active; Activity (RAW264.7 [6]): Active
6 | CC(=O)OCC[N+](C)(C)C | – | – | Activity (RAW264.7 [3]): Active; Activity (RAW264.7 [4]): Active; Activity (RAW264.7 [5]): Active; Activity (RAW264.7 [6]): Active
7 | CC(=O)Oc1ccc(CC[C@@H](O)CC/C=C/c2ccccc2)cc1OC(C)=O | 121 | Non-Toxic | IC50 (RAW264.7 [7]): 1610 nM
8 | Oc1ccc(CCCC[C@H](O)CCc2ccccc2)cc1 | 23.9 | Non-Toxic | –
9 | O=C(/C=C/C=C/c1cccc(O)c1)/C=C/c1cccc(O)c1 | 95.9 | Non-Toxic | IC50 (RAW264.7 [7]): 580 nM
10 | O=C(CCc1ccccc1)C[C@@H](O)/C=C/c1ccccc1 | 11 | Non-Toxic | –
11 | COc1ccc(CCCCC(O)CCc2cccc(O)c2)c(OC)c1 (stereo not drawn) | -14.5 | Non-Toxic | –
12 | O[C@@H](CC/C=C/c1ccccc1)CCc1ccc(OCc2ccccc2)cc1 | -15.7 | Non-Toxic | –
13 | COc1ccc(CCC(=O)CCCCc2cccc(O)c2)cc1 | 21.4 | Non-Toxic | –
14 | COc1cccc(/C=C/C=C/C(=O)/C=C/c2cccc(O)c2)c1 | 92.3 | Non-Toxic | IC50 (RAW264.7 [7]): 410 nM
15 | Oc1ccc(CC[C@@H](O)CC/C=C/c2ccccc2)cc1 | 20.4 | Non-Toxic | –
16 | COc1ccc(OC)c(CCCCC(=O)CCc2ccc(OC)c(O)c2)c1 | 39.4 | Non-Toxic | –
17 | COc1ccc(CCCCC(O)CCc2ccc(OC)c(O)c2)c(OC)c1 (stereo not drawn) | -2.9 | Non-Toxic | –
18 | O=C(/C=C/C=C/c1ccccc1)CCc1ccc(O)cc1 | 60.4 | Non-Toxic | –
19 | CC(=O)Oc1ccc(CCC(=O)CCCCc2ccccc2)cc1 | 45.2 | Non-Toxic | –
20 | COc1cc(/C=C/C(=O)CC(=O)/C=C/c2ccc(O)c(OC)c2)ccc1O [CURCUMIN] | 74 | Non-Toxic | IC50 (RAW264.7 [7]): 1890 nM
21 | CC(=O)Oc1ccc(CCC(=O)CCCCc2ccccc2)cc1OC(C)=O | 128 | Non-Toxic | IC50 (RAW264.7 [7]): 370 nM
22 | COc1ccc(CCC(=O)CC/C=C/c2ccccc2)cc1 | -17.2 | Non-Toxic | –
23 | O=C(CCCCc1ccccc1)CCc1ccccc1 | 38.9 | Non-Toxic | –
24 | O=C(CCc1ccccc1)C[C@@H](O)CCc1ccccc1 | 14.7 | Non-Toxic | –
25 | CC(=O)Oc1ccc(CC[C@@H](O)CCCCc2ccccc2)cc1OC(C)=O | 99.2 | Non-Toxic | IC50 (RAW264.7 [7]): 330 nM

Row | SMILES | inhibition at 5 µM (RAW264.7 [1]) [%] | Activity (RAW264.7 [2]) | further results
26 | COc1ccc(OC)c(CCCCC(O)CCc2ccc(OC)c(O)c2)c1 (stereo not drawn) | 36.2 | Non-Toxic | –
27 | C(=C\C=C\c1ccccc1)/C=C/Cc1ccccc1 | 124 | Non-Toxic | IC50 (RAW264.7 [7]): 840 nM
28 | O=C(/C=C/C=C/c1ccccc1)CCc1ccccc1 | 52.8 | Non-Toxic | –
29 | Oc1ccc(CCC(O)/C=C/C=C/c2ccccc2)cc1O (single isomer, unassigned) | 12.3 | Non-Toxic | –
30 | COC(/C=C/C=C/c1ccccc1)CCc1ccc(O)cc1 (stereo not drawn) | 66.3 | Non-Toxic | –
31 | OC(CCc1ccccc1)CC(O)CCc1ccccc1 (stereo not drawn) | 23.5 | Non-Toxic | –
32 | COc1cc(CC[C@@H](O)CC/C=C/c2ccccc2)ccc1O | 47.9 | Non-Toxic | –
33 | COc1ccc(CCC(/C=C/C=C/c2ccccc2)OC)cc1O (stereo not drawn) | 71.1 | Non-Toxic | –
34 | O=C(CCCCc1ccccc1)CCc1ccc(O)cc1 | 68.3 | Non-Toxic | –
35 | COc1ccc(CCCCC(=O)CCc2ccc(OC)c(O)c2)c(OC)c1 | 16.6 | Non-Toxic | –
36 | O/N=C(/CC/C=C/c1ccccc1)CCc1ccccc1 | 39.4 | Non-Toxic | –
37 | COc1ccc(OC)c(/C=C/C=C/C(=O)/C=C/c2ccc(OC)c(O)c2)c1 | 101 | Non-Toxic | IC50 (RAW264.7 [7]): 610 nM
38 | O[C@@H](/C=C/C=C/c1ccccc1)CCc1ccccc1 | 4.61 | Non-Toxic | –
39 | Oc1ccc(CC[C@@H](O)CCCCc2ccccc2)cc1O | 54 | Non-Toxic | –
40 | CC(=O)Oc1ccc(CCC(=O)CC/C=C/c2ccccc2)cc1 | 22.2 | Non-Toxic | –
41 | O=C(CC/C=C/c1ccccc1)CCc1ccc(O)cc1 | 46.1 | Non-Toxic | –
42 | COc1ccc(CCCCC(=O)CCc2cccc(O)c2)c(OC)c1 | 2.74 | Non-Toxic | –
43 | COc1cccc(/C=C/C(=O)/C=C/C=C/c2cccc(O)c2)c1 | 84.3 | Non-Toxic | IC50 (RAW264.7 [7]): 810 nM
44 | COc1ccc(CCC(=O)CCCCc2cccc(O)c2)cc1O | 8.39 | Non-Toxic | –
45 | Oc1ccc(CC[C@@H](O)CC/C=C/c2ccccc2)cc1O | 34.7 | Non-Toxic | –
46 | O=C(CC/C=C/c1ccccc1)CCc1ccccc1 | -8.52 | Non-Toxic | –
47 | COc1ccc(/C=C/C(=O)/C=C/C=C/c2cccc(O)c2)cc1 | 85.8 | Non-Toxic | IC50 (RAW264.7 [7]): 1230 nM
48 | COc1ccc(/C=C/C=C/C(=O)/C=C/c2cccc(O)c2)c(OC)c1 | 82.3 | Non-Toxic | IC50 (RAW264.7 [7]): 970 nM
49 | COc1cc(CCC(O)/C=C/C=C/c2ccccc2)ccc1O (stereo not drawn) | 35.3 | Non-Toxic | –
